Reference: PMC9454457 (Journal of Nuclear Medicine, 2022)
Where two headings read alike, the source gives them in different places.

Columns and labels:
[1] = In vivo metabolic stability in murine plasma and urine; parameters: species or system CB17-SCID mice; conditions: 30 min after injection, n = 3
Protocol: Approximately 30–40 MBq (1 nmol, 150 μL) of the ^177Lu-labeled compounds were injected into the tail vein of anesthetized CB17-SCID mice (n = 3). After euthanasia at 30 min after injection, blood and urine samples were collected. Blood proteins were precipitated by treatment with ice-cold MeCN (v/v = 1/1), followed by centrifugation (13,000 rpm, 20 min). The supernatants were decanted and further centrifuged (13,000 rpm, 10 min) using a Costar Spin-X centrifuge tube filter (0.45 μm). The filtrated plasma samples and the urine samples were analyzed using radio–RP-HPLC.
(§1) FIGURE 2. Preclinical data of ^nat/177Lu-RM2 (red), ^nat/177Lu-NeoBOMB1 (gray), ^nat/177Lu-AMTG (green), and ^nat/177Lu-AMTG2 (blue). (A) Affinity data on PC-3 and T-47D cells (1.5 × 10^5 cells/mL/well) using 3-^125I-D-Tyr^6-MJ9 (0.2 nM/well) as radiolabeled reference (2 h, room temperature, Hanks’ balanced salt solution plus 1% bovine serum albumin [v/v]). (B) GRPR-mediated internalization (0.25 pmol/well) on PC-3 cells as percentage of applied activity (incubation at 37°C for 1 h, Dulbecco modified Eagle medium/F-12 plus 5% bovine serum albumin [v/v], 1.5 × 10^5 cells/mL/well). Data were corrected for nonspecific binding (10^−3 M ^natLu-RM2). (C) Lipophilicity at pH 7.4 (logD7.4). (D) Metabolic stability in vitro in human plasma (left) (37°C, 72 ± 2 h; n = 4), and metabolic stability in vivo in murine plasma (middle) and murine urine (right) at 30 min after injection (n = 3). Data are expressed as mean ± SD.

[2] = Biodistribution in PC-3 tumor-bearing CB17-SCID mice; assay type: in vivo; conditions: 24 h after injection; for tissue uptake at 24 h: CB17-SCID, mouse, intravenous, total radioactivity
Protocol: A detailed description of tumor inoculation is provided in the supplemental materials. Approximately 2–5 MBq (100 pmol, 150 μL) of the ^177Lu-labeled GRPR ligands were injected into the tail vein of anesthetized (2% isoflurane) PC-3 tumor–bearing mice (biodistribution, n = 4; imaging, n = 1).
For biodistribution studies, organs were removed, weighed, and measured in a γ-counter (Perkin Elmer) after euthanasia at 24 h after injection.
For all competition studies, 3.62 mg/kg (40 nmol) of ^natLu-RM2 (10^−3 M in phosphate-buffered saline) were coadministered.

[3] = In vitro metabolic stability in human plasma; assay type: in vitro ADME; conditions: 37°C, 72 ± 2 h, n = 4
Protocol: Metabolic stability in vitro was determined through a procedure published by Linder et al. that was slightly modified ([16]). Immediately after labeling, 200 μL of human plasma were added and the mixture was incubated at 37°C for 72 ± 2 h. Proteins were precipitated by treatment with ice-cold EtOH (150 μL) and ice-cold MeCN (450 μL), followed by centrifugation (13,000 rpm, 20 min). The supernatants were decanted and further centrifuged (13,000 rpm, 10 min) using a Costar Spin-X (Corning) centrifuge tube filter (0.45 μm). The filtrated plasma samples were analyzed using radio–RP-HPLC.
as §1

[4] = adrenal, 100 pmol, 100 pmol, n = 4, read-out: Biodistribution, Adrenal
[5] = adrenal, 3.62 mg/kg, coinjection of natLu-RM2 3.62 mg/kg, n = 3, read-out: Biodistribution, Adrenal, competition study
[6] = blood, 100 pmol, 100 pmol, n = 4, read-out: Biodistribution, Blood
[7] = blood, 3.62 mg/kg, coinjection of natLu-RM2 3.62 mg/kg, n = 3, read-out: Biodistribution, Blood, competition study
[8] = bone, 100 pmol, 100 pmol, n = 4, read-out: Biodistribution, Bone
[9] = bone, 3.62 mg/kg, coinjection of natLu-RM2 3.62 mg/kg, n = 3, read-out: Biodistribution, Bone, competition study
[10] = heart, 100 pmol, 100 pmol, n = 4, read-out: Biodistribution, Heart
[11] = heart, 3.62 mg/kg, coinjection of natLu-RM2 3.62 mg/kg, n = 3, read-out: Biodistribution, Heart, competition study
[12] = intestine, 100 pmol, 100 pmol, n = 4, read-out: Biodistribution, Intestine
[13] = intestine, 3.62 mg/kg, coinjection of natLu-RM2 3.62 mg/kg, n = 3, read-out: Biodistribution, Intestine, competition study
[14] = kidney, 100 pmol, 100 pmol, n = 4, read-out: Biodistribution, Kidney
[15] = kidney, 3.62 mg/kg, coinjection of natLu-RM2 3.62 mg/kg, n = 3, read-out: Biodistribution, Kidney, competition study
[16] = liver, 100 pmol, 100 pmol, n = 4, read-out: Biodistribution, Liver
[17] = liver, 3.62 mg/kg, coinjection of natLu-RM2 3.62 mg/kg, n = 3, read-out: Biodistribution, Liver, competition study
[18] = lung, 100 pmol, 100 pmol, n = 4, read-out: Biodistribution, Lung
[19] = lung, 3.62 mg/kg, coinjection of natLu-RM2 3.62 mg/kg, n = 3, read-out: Biodistribution, Lung, competition study
[20] = muscle, 100 pmol, 100 pmol, n = 4, read-out: Biodistribution, Muscle
[21] = muscle, 3.62 mg/kg, coinjection of natLu-RM2 3.62 mg/kg, n = 3, read-out: Biodistribution, Muscle, competition study
[22] = pancreas, 100 pmol, 100 pmol, n = 4, read-out: Biodistribution, Pancreas
[23] = pancreas, 3.62 mg/kg, coinjection of natLu-RM2 3.62 mg/kg, n = 3, read-out: Biodistribution, Pancreas, competition study
[24] = spleen, 100 pmol, 100 pmol, n = 4, read-out: Biodistribution, Spleen
[25] = spleen, 3.62 mg/kg, coinjection of natLu-RM2 3.62 mg/kg, n = 3, read-out: Biodistribution, Spleen, competition study
[26] = stomach, 100 pmol, 100 pmol, n = 4, read-out: Biodistribution, Stomach
[27] = stomach, 3.62 mg/kg, coinjection of natLu-RM2 3.62 mg/kg, n = 3, read-out: Biodistribution, Stomach, competition study
[28] = tumor (PC-3), 100 pmol, PC-3 tumor, 100 pmol, n = 4, read-out: Biodistribution, Tumor
[29] = tumor (PC-3), 3.62 mg/kg, PC-3 tumor, coinjection of natLu-RM2 3.62 mg/kg, n = 3, read-out: Biodistribution, Tumor, competition study

Compound | Intact tracer in murine plasma in vivo [1] | Intact tracer in murine urine in vivo [1] | tissue uptake at 24 h [2, 4] [%ID/g] | tissue uptake at 24 h [2, 5] [%ID/g] | tissue uptake at 24 h [2, 6] [%ID/g] | tissue uptake at 24 h [2, 7] [%ID/g] | tissue uptake at 24 h [2, 8] [%ID/g] | tissue uptake at 24 h [2, 9] [%ID/g] | tissue uptake at 24 h [2, 10] [%ID/g] | tissue uptake at 24 h [2, 11] [%ID/g] | tissue uptake at 24 h [2, 12] [%ID/g] | tissue uptake at 24 h [2, 13] [%ID/g] | tissue uptake at 24 h [2, 14] [%ID/g] | tissue uptake at 24 h [2, 15] [%ID/g] | tissue uptake at 24 h [2, 16] [%ID/g] | tissue uptake at 24 h [2, 17] [%ID/g] | tissue uptake at 24 h [2, 18] [%ID/g] | tissue uptake at 24 h [2, 19] [%ID/g] | tissue uptake at 24 h [2, 20] [%ID/g] | tissue uptake at 24 h [2, 21] [%ID/g] | other results
CC(C)C[C@H](NC(=O)C[C@H](O)[C@H](CC(C)C)NC(=O)[C@H](Cc1c[nH]cn1)NC(=O)CNC(=O)[C@@H](NC(=O)[C@H](C)NC(=O)[C@](C)(Cc1c[nH]c2ccccc12)NC(=O)[C@H](CCC(N)=O)NC(=O)[C@@H](Cc1ccccc1)NC(=O)CN1CCC(NC(=O)CN2CCN(CC(=O)O)CCN(CC(=O)O)CCN(CC(=O)O)CC2)CC1)C(C)C)C(N)=O [^177Lu-AMTG, ^177Lu-α-Me-L-Trp^8-RM2, metal not drawn] | 92.9% ± 0.7% | 68.2% ± 3.1% | 0.46 ± 0.22 | 0.09 ± 0.07 | 0.004 ± 0.001 | 0.003 | 0.05 ± 0.02 | 0.05 ± 0.03 | 0.02 | 0.02 ± 0.01 | 0.2 ± 0.1 | 0.27 ± 0.21 | 1.2 to 1.9 | 1.17 ± 0.26 | 0.14 ± 0.03 | 1.4 ± 0.86 | 0.04 ± 0.01 | 0.27 ± 0.15 | 0.005 ± 0.003 | 0.003 ± 0.002 | Higher activity level in PC-3 tumor than for 177Lu-RM2 [2]: 35%; tissue uptake at 24 h [2, 22]: 0.56 ± 0.3 %ID/g; tissue uptake at 24 h [2, 23]: 0.05 ± 0.03 %ID/g; tissue uptake at 24 h [2, 24]: 0.1 ± 0.02 %ID/g; tissue uptake at 24 h [2, 25]: 2.97 ± 2.01 %ID/g; tissue uptake at 24 h [2, 26]: 0.1 ± 0.04 %ID/g; tissue uptake at 24 h [2, 27]: 0.04 ± 0.02 %ID/g; tissue uptake at 24 h [2, 28]: 11.5 %ID/g; tissue uptake at 24 h [2, 29]: 0.33 ± 0.2 %ID/g; Intact compound in human plasma in vitro [3]: 77.7% ± 8.7%
CC(C)C[C@H](NC(=O)C[C@H](O)[C@H](CC(C)C)NC(=O)[C@H](Cc1c[nH]cn1)NC(=O)CNC(=O)[C@@H](NC(=O)[C@H](C)NC(=O)[C@](C)(Cc1c[nH]c2ccccc12)NC(=O)[C@H](CCC(N)=O)NC(=O)[C@@H](Cc1ccccc1)NC(=O)CN1CCC(NC(=O)CCC(C(=O)O)N2CCN(CC(=O)O)CCN(CC(=O)O)CCN(CC(=O)O)CC2)CC1)C(C)C)C(N)=O (stereo partly drawn) [^177Lu-AMTG2, ^177Lu-DOTAGA-α-Me-L-Trp^8-RM2, metal not drawn] | 77.6% ± 3.1% | 61.6% ± 1.6% | 0.26 ± 0.14 | 0.03 ± 0.02 | 0.011 | 0.002 ± 0.001 | 0.22 ± 0.05 | 0.02 ± 0.01 | 0.03 ± 0.02 | 0.02 ± 0.01 | 0.3 ± 0.04 | 0.34 ± 0.35 | 1.2 to 1.9 | 1.63 ± 0.44 | 0.32 ± 0.14 | 0.74 ± 0.44 | 0.05 ± 0.01 | 1.18 ± 1.49 | 0.003 ± 0.003 | 0.003 ± 0.002 | tissue uptake at 24 h [2, 22]: 0.95 ± 0.14 %ID/g; tissue uptake at 24 h [2, 23]: 0.07 ± 0.01 %ID/g; tissue uptake at 24 h [2, 24]: 0.15 ± 0.07 %ID/g; tissue uptake at 24 h [2, 25]: 1.06 ± 1.08 %ID/g; tissue uptake at 24 h [2, 26]: 0.12 ± 0.03 %ID/g; tissue uptake at 24 h [2, 27]: 0.04 ± 0.01 %ID/g; tissue uptake at 24 h [2, 28]: 7.97 ± 1.34 %ID/g; tissue uptake at 24 h [2, 29]: 0.36 ± 0.25 %ID/g; Intact compound in human plasma in vitro [3]: 66.2% ± 5.1%
